Calls of active or inactive are those of the source. The calls are words filed in the database; no cut-off is given here.
Legend:
Legumain (Mus musculus) = target: T1, Legumain (Mus musculus) (UniProt O89017); assay: Inhibition of AEP in mouse kidney by HTS assay
T1 sequence (whole entry): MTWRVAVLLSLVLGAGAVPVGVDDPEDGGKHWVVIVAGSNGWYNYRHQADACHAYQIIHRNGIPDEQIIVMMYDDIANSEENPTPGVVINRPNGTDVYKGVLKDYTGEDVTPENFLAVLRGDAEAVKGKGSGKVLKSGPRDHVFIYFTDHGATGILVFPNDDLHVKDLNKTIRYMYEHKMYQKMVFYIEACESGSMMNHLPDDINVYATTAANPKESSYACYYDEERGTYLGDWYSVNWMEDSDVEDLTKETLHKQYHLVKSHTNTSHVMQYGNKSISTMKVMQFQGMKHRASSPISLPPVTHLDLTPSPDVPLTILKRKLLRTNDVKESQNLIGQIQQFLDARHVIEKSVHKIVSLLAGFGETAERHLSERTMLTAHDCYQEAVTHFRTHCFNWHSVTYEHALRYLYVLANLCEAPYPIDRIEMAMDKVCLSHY

Cathepsin S = Cathepsin S (Homo sapiens, UniProt P25774); assay: Inhibition of cathepsin-S (unknown origin)
Cathepsin S, sequence (P25774 whole entry): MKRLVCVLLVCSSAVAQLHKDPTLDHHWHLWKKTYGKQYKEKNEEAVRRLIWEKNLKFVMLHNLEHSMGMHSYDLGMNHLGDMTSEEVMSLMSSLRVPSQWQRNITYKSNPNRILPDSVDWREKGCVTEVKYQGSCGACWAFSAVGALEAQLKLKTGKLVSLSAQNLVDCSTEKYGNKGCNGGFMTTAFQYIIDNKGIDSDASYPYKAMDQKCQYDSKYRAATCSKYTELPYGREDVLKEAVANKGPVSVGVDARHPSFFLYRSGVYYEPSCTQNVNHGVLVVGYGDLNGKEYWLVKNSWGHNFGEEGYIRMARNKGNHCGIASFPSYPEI

[1] = Apparent permeability across apical to basolateral side in human Caco2 cells after 2 hrs by LC-MS/MS method; format: ADME, cell-based; settings: caco-2, 2 h
Legumain [2] = target: T2, Legumain (Homo sapiens, UniProt Q99538); assay: Competitive inhibition of AEP (unknown origin) using varying levels of Z-AAN-AMC substrate after 10 mins by Lineweaver-Burk plot analysis
T2 sequence (Q99538 whole entry): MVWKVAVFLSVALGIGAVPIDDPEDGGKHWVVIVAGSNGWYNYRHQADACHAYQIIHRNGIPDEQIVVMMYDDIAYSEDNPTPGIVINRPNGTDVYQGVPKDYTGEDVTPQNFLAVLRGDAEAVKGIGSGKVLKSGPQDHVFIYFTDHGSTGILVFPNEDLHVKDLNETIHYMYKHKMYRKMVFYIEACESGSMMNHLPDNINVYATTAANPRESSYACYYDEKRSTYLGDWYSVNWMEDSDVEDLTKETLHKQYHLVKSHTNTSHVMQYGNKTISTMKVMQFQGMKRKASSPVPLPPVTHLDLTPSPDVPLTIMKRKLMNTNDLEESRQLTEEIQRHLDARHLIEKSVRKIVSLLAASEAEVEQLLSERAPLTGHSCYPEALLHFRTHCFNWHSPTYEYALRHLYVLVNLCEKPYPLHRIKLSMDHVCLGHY

[3] = Apparent permeability across basolateral to apical side in human Caco2 cells after 2 hrs by LC-MS/MS method; format: ADME, cell-based; settings: caco-2, 2 h
[4] = Inhibition of cathepsin-L (unknown origin); set-up: species or system Homo sapiens
Legumain (Homo sapiens) = target: T3, Legumain (Homo sapiens) (UniProt Q99538); assay: Inhibition of AEP (unknown origin) assessed as residual activity at 1 uM using Cbz-Ala-Ala-Asn-AMC as substrate after 15 mins by fluorescence assay relative to control
T3 sequence (whole entry): T2 sequence (Q99538 whole entry)

MDA-MB-435 [5] = assay: Cytotoxicity against human MDA-MB-435 cells assessed as reduction in cell viability up to 2 uM by MTT assay; format: cell-based
MDA-MB-231 [6] = assay: Cytotoxicity against human MDA-MB-231 cells assessed as reduction in cell viability up to 2 uM by MTT assay; format: cell-based
Caspase-3 = target: T4, Caspase-3 (Homo sapiens, UniProt P42574); assay: Inhibition of caspase-3 (unknown origin)
T4 sequence (P42574 whole entry): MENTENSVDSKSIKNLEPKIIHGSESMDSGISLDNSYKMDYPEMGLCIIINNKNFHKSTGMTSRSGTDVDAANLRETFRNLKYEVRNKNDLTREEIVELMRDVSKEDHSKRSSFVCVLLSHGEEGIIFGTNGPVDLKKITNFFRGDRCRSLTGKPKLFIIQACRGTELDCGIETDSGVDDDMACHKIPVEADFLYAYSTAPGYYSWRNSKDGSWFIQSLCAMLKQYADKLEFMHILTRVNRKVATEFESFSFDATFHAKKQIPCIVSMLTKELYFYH

Mus musculus [7] = assay: Toxicity in nude mouse xenografted with human MDA-MB-231 cells assessed as effect on blood count at 3 to 10 mg/kg, po via gavage for 42 consecutive days by hematoxylin and eosin staining based microscopic method; format: organism-based; settings: in vivo
Caspase-8 = Caspase-8 (Homo sapiens, UniProt Q14790); assay: Inhibition of caspase-8 (unknown origin)
Caspase-8, sequence (Q14790 217-374 limits assumed): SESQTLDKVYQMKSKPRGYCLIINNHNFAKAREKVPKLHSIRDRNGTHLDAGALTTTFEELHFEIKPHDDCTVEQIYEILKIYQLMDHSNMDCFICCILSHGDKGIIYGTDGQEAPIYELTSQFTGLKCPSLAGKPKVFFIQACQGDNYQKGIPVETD
Caspase-8, sequence (Q14790 385-479 limits assumed): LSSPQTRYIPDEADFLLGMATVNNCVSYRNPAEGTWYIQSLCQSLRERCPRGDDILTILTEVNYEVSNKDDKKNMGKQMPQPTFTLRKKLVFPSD

MDA-MB-231 [8] = assay: Antitumor activity against human MDA-MB-231 cells xenografted in nude mouse assessed as metastatic nodules on lungs at 10 mg/kg, po via gavage for 42 consecutive days by hematoxylin and eosin staining based microscopic method relative to control; format: functional
MDA-MB-231 [9] = assay: Anti-invasive activity against human MDA-MB-231 cells harboring AEP siRNA up to 2 uM by crystal violet staining based microscopic method; format: functional, cell-based
MDA-MB-231 [10] = assay: Anti-invasive activity against human MDA-MB-231 cells by crystal violet staining based microscopic method; format: functional, cell-based
MDA-MB-231 [11] = assay: Antitumor activity against human MDA-MB-231 cells xenografted in nude mouse assessed as reduction in mammary tumor weight at 3 to 10 mg/kg, po via gavage for 42 consecutive days; format: functional, organism-based
MDA-MB-231 [12] = assay: Cytotoxicity against human MDA-MB-231 cells assessed as reduction in cell viability up to 10 uM by MTT assay; format: cell-based
MDA-MB-435 [13] = assay: Anti-invasive activity against human MDA-MB-435 cells harboring AEP siRNA up to 2 uM by crystal violet staining based microscopic method; format: functional, cell-based
Mus musculus [14] = assay: Toxicity in nude mouse xenografted with human MDA-MB-231 cells assessed as increase in spleen size at 3 to 10 mg/kg, po via gavage for 42 consecutive days; format: organism-based; settings: in vivo
MDA-MB-435 [15] = assay: Anti-invasive activity against human MDA-MB-435 cells by crystal violet staining based microscopic method; format: functional, cell-based
MDA-MB-231 [16] = assay: Inhibition of MMP2 cleavage in human MDA-MB-231 cells harboring AEP siRNA up to 10 uM by gelatin zymography assay; format: functional, cell-based
MDA-MB-231 [17] = assay: Antitumor activity against human MDA-MB-231 cells xenografted in nude mouse assessed as metastatic nodules on lungs at 3 mg/kg, po via gavage for 42 consecutive days by hematoxylin and eosin staining based microscopic method relative to control; format: functional
Mus musculus [18] = assay: Toxicity in nude mouse xenografted with human MDA-MB-231 cells assessed as body weight loss at 3 to 10 mg/kg, po via gavage for 42 consecutive days; format: organism-based; settings: in vivo
Mus musculus [19] = assay: Toxicity in nude mouse xenografted with human MDA-MB-231 cells assessed as abnormality in liver at 3 to 10 mg/kg, po via gavage for 42 consecutive days by hematoxylin and eosin staining based microscopic method; format: organism-based; settings: in vivo
Mus musculus [20] = assay: Toxicity in nude mouse xenografted with human MDA-MB-231 cells assessed as abnormality in bone marrow at 3 to 10 mg/kg, po via gavage for 42 consecutive days by hematoxylin and eosin staining based microscopic method; format: organism-based; settings: in vivo
Mus musculus [21] = assay: Toxicity in nude mouse xenografted with human MDA-MB-231 cells assessed as abnormality in kidney at 3 to 10 mg/kg, po via gavage for 42 consecutive days by hematoxylin and eosin staining based microscopic method; format: organism-based; settings: in vivo
MDA-MB-231 [22] = assay: Anti-invasive activity against human MDA-MB-231 cells at 2 uM by crystal violet staining based microscopic method relative to control; format: functional
MDA-MB-435 [23] = assay: Anti-invasive activity against human MDA-MB-435 cells at 2 uM by crystal violet staining based microscopic method relative to control; format: functional
MDA-MB-435 [24] = assay: Anti-migratory activity against human MDA-MB-435 cells up to 2 uM by transwell assay relative to control; format: functional
MDA-MB-231 [25] = assay: Anti-migratory activity against human MDA-MB-231 cells up to 2 uM by transwell assay relative to control; format: functional
Mus musculus [26] = assay: Reduction in ratio of cleaved MMP2 to full-length MMP2 in mammary tumor of nude mouse xenografted with human MDA-MB-231 cells at 3 to 10 mg/kg, po via gavage for 42 consecutive days by gelatin zymography assay; format: functional, organism-based
Homo sapiens = organism: Homo sapiens; assay: Selectivity ratio of IC50 for cathepsin-L (unknown origin) to IC50 for AEP (unknown origin)
Legumain [27] = target: T2, Legumain; assay: Inhibition of AEP (unknown origin) using Cbz-Ala-Ala-Asn-AMC as substrate after 15 mins by fluorescence assay

Structure (SMILES): Cn1c(=O)[nH]c(=O)c2c1nc(S)n2CC(O)COc1ccc(Cl)cc1 (stereo unspecified)
- inhibition (Legumain (Mus musculus)): Active
- IC50 (Cathepsin S): > 200 µM
- Papp [1]: 1.1 ×10⁻⁶ cm/s
- Ki (Legumain [2]): 0.105 µM
- Papp [3]: 20.3 ×10⁻⁶ cm/s
- IC50 [4]: > 200 µM

Structure (SMILES): Cc1ccc(Cn2c(S)nc3c2c(=O)n(C)c(=O)n3C)cc1
- Activity (Legumain (Homo sapiens)): 17.2%

Structure (SMILES): Cn1c(=O)[nH]c(=O)c2c1nc(S)n2C[C@H](O)CO
- Activity (Legumain (Homo sapiens)): 85.4%

Structure (SMILES): CCn1c(S)nc2c1c(=O)[nH]c(=O)n2C
- Activity (Legumain (Homo sapiens)): 13.8%

Structure (SMILES): Cn1c(=O)n(Cc2ccccc2)c(=O)c2c1nc(S)n2Cc1ccccc1
- Activity (Legumain (Homo sapiens)): 17.2%

Structure (SMILES): Cc1ccc(Cn2c(S)nc3c2c(=O)[nH]c(=O)n3C)cc1
- Activity (Legumain (Homo sapiens)): 12.3%

Structure (SMILES): CC[C@H](C)n1c(S)nc2c1c(=O)[nH]c(=O)n2C
- Activity (Legumain (Homo sapiens)): 14.1%

Structure (SMILES): CCCCn1c(S)nc2c1c(=O)[nH]c(=O)n2C
- Activity (Legumain (Homo sapiens)): 14.8%

Structure (SMILES): CCCn1c(S)nc2c1c(=O)[nH]c(=O)n2C
- Activity (Legumain (Homo sapiens)): 14.9%

Structure (SMILES): Cn1ccnc1Sc1nc2c(c(=O)n(C)c(=O)n2C)n1C
- Activity (Legumain (Homo sapiens)): 100%

Structure (SMILES): Cn1c(=O)c2c(ncn2C)n(C)c1=O
- Activity (Legumain (Homo sapiens)): 74.3%

Structure (SMILES): C=CCn1c(S)nc2c1c(=O)n(C)c(=O)n2C
- Activity (Legumain (Homo sapiens)): 18.1%

Structure (SMILES): CSc1nc2c(c(=O)n(C)c(=O)n2C)n1C
- Activity (Legumain (Homo sapiens)): 70.5%

Structure (SMILES): CCn1c(=O)c2c(nc(S)n2C)n(C)c1=O
- Activity (MDA-MB-435 [5]): Non-Toxic
- Activity (MDA-MB-231 [6]): Non-Toxic
- IC50 (Cathepsin S): > 200 µM
- IC50 (Caspase-3): > 200 µM
- Activity (Mus musculus [7]): Non-Toxic
- IC50 (Caspase-8): > 200 µM
- Activity (MDA-MB-231 [8]): 17%
- Activity (MDA-MB-231 [9]): inactive
- Activity (MDA-MB-231 [10]): Dose-dependent effect
- Activity (MDA-MB-231 [11]): Active
- Activity (MDA-MB-231 [12]): Non-Toxic
- Activity (MDA-MB-435 [13]): inactive
- Activity (Mus musculus [14]): Toxic
- Activity (MDA-MB-435 [15]): Dose-dependent effect
- inhibition (MDA-MB-231 [16]): inactive
- Activity (MDA-MB-231 [17]): 33%
- Activity (Mus musculus [18]): Non-Toxic
- Activity (Mus musculus [19]): Non-Toxic
- Activity (Mus musculus [20]): Non-Toxic
- Activity (Mus musculus [21]): Non-Toxic
- inhibition at 2 µM (MDA-MB-231 [22]): 75%
- inhibition at 2 µM (MDA-MB-435 [23]): 75%
- inhibition (INH) (MDA-MB-435 [24]): 40%
- inhibition (INH) (MDA-MB-231 [25]): 25%
- Activity (Mus musculus [26]): Active
- IC50 [4]: 162 µM

Structure (SMILES): Cn1c(S)nc2c1c(=O)n(Cc1ccccc1)c(=O)n2C
- IC50 (Cathepsin S): > 200 µM
- IC50 (Caspase-3): > 200 µM
- IC50 (Caspase-8): > 200 µM
- IC50 [4]: > 200 µM

Structure (SMILES): CC(C)n1c(S)nc2c1c(=O)n(C)c(=O)n2C
- Activity (Legumain (Homo sapiens)): 17.8%

Structure (SMILES): COc1ccc(OC[C@@H](O)Cn2c(S)nc3c2c(=O)[nH]c(=O)n3C)cc1
- Activity (Legumain (Homo sapiens)): 18.5%

Structure (SMILES): Cc1ncc2c(=O)[nH]c(=O)n(C)c2n1
- Activity (Legumain (Homo sapiens)): 91.9%

Structure (SMILES): CCn1c(S)nc2c1c(=O)n(C)c(=O)n2C
- Activity (Legumain (Homo sapiens)): 15.9%

Structure (SMILES): COCCn1c(S)nc2c1c(=O)[nH]c(=O)n2C
- Activity (Legumain (Homo sapiens)): 13.8%

Structure (SMILES): Cn1c(=O)c2c(nc(S(=O)(=O)c3ccccc3)n2C)n(C)c1=O
- Activity (Legumain (Homo sapiens)): 98.9%

Structure (SMILES): CC(=O)Cn1c(S)nc2c1c(=O)[nH]c(=O)n2C
- Activity (Legumain (Homo sapiens)): 69.4%

Structure (SMILES): Cn1c(=O)c2c(nc(S)n2C)n(C)c1=O
- IC50 (Cathepsin S): > 200 µM
- IC50 (Caspase-3): 185 µM
- IC50 (Caspase-8): > 200 µM
- Ratio IC50 (Homo sapiens): 500
- Activity (Legumain (Homo sapiens)): 16.1%
- IC50 (Legumain [27]): 0.18 µM
- IC50 [4]: 80.5 µM

Structure (SMILES): CC(C)Cn1c(S)nc2c1c(=O)[nH]c(=O)n2C
- Activity (Legumain (Homo sapiens)): 15.7%

Structure (SMILES): Cn1c(S)nc2c1c(=O)[nH]c(=O)n2C
- Activity (Legumain (Homo sapiens)): 11.5%

Structure (SMILES): Cn1c(=O)c2c(nc(S(C)(=O)=O)n2C)n(C)c1=O
- Activity (Legumain (Homo sapiens)): 98.3%

Structure (SMILES): Cn1c(=O)[nH]c(=O)c2c1nc(S)n2C[C@H](O)COc1ccccc1
- Activity (Legumain (Homo sapiens)): 34.6%
